In brackets after ≈: the same amount, converted by molar mass.
Settings: buffer; pH 7.4; 200.0 µM

SMILES | solubility kinetic
Clc1ccc(-c2ncc3ccccn23)c(Cl)c1 | 22.5 µg/mL (≈ 85.5 µM)
CC1CCN(C2=NC(=O)/C(=C/c3ccccc3F)S2)CC1 | 14.3 µg/mL (≈ 47 µM)
CC(=O)c1c(C(=O)O)c2ccccc2[nH]c1=O | 34 µg/mL (≈ 147 µM)
O=C(N/N=C/c1ccccn1)c1cccnc1 | > 33.9 µg/mL
Cc1c(NC(=O)CN2CCCC(C)C2)ccc2nsnc12 (stereo not drawn) | 42.6 µg/mL (≈ 140 µM)
O=C(NNC(=O)c1ccncc1)Nc1cccc(C(F)(F)F)c1 | > 48.6 µg/mL
O=C(Nc1ccc(O)cc1)c1ccc(NC(=O)C2CCCO2)cc1 (stereo not drawn) | > 49 µg/mL
CC(C)c1ccc2oc(=O)cc(CN3CCOCC3)c2c1 | 41.9 µg/mL (≈ 146 µM)
N#Cc1ccc(C(=O)OCC(=O)N2CCCC2)cc1 | > 38.7 µg/mL
NC(=O)C1CCN(C(=O)/C=C/c2ccccc2[N+](=O)[O-])CC1 | > 45.5 µg/mL
CCCCN(C)Cc1cc(=O)oc2cc3c(cc12)CCCC3 | < 0.6 µg/mL
CCCc1nc2oc3c(NCC(C)O)ncnc3c2c2c1CCCC2 (stereo not drawn) | 0.4 µg/mL (≈ 1.17 µM)
COc1ccccc1/C=C1\C(=O)NC(=S)N(c2ccccc2)C1=O | > 50.8 µg/mL
CCCCSc1nc2sc3c(c2c(=O)[nH]1)CC(C)(CC)OC3 (stereo not drawn) | 0.5 µg/mL (≈ 1.48 µM)
O=C(CCc1ccc(S(=O)(=O)N2CCOCC2)cc1)Nc1ccccc1F | > 58.9 µg/mL
Nc1ccc(C(=O)O)cc1S(=O)(=O)O | > 32.6 µg/mL
COc1ccc(C(=O)O/N=C(\N)c2ccccn2)cc1 | > 40.7 µg/mL
Cc1cccc(C)c1NC(=O)CCn1cnc2ccccc2c1=O | > 48.2 µg/mL
C=CCn1c(O)c(/C(C)=N/N2CCCCCC2)c(=O)[nH]c1=O | > 46 µg/mL
CC(C)N(C(=O)COC(=O)CCC(=O)c1cccs1)c1ccccc1 | > 53.9 µg/mL

SMILES | solubility kinetic
CCc1cccc(NC(=O)c2cc(OC)c(OC)c(OC)c2)c1 | 34.2 µg/mL (≈ 108 µM)
NC1=NC(=O)/C(=C/c2ccc(OCC(=O)O)cc2)S1 | > 41.7 µg/mL
Cc1ccc(OCCSc2nc3ncnc(N)c3[nH]2)cc1 | 3.8 µg/mL (≈ 12.6 µM)
CCOc1ccc(NC(=O)N2CCc3ccccc3C2)cc1 | 3.7 µg/mL (≈ 12.5 µM)
Cc1nc2c(c(=O)c3ccccc3n2C)c(=O)n1-c1ccc(F)cc1 | 13.7 µg/mL (≈ 40.9 µM)
Cc1cc(Cl)ccc1NC(=S)NCCc1ccc(Cl)cc1 | < 0.4 µg/mL
Cc1ccc(OCC(=O)NC2CCSc3ccccc32)cc1 (stereo not drawn) | 11.8 µg/mL (≈ 37.6 µM)
C/C(=N\NC(=O)c1cccnc1)c1cccc([N+](=O)[O-])c1 | > 42.6 µg/mL
Cn1c(-c2ccccn2)[n+](C)c2ccccc21.[Cl-] | > 39 µg/mL
O=C(Nc1ccccc1)c1ccc(-c2ccc(F)cc2)s1 | < 0.6 µg/mL
NS(=O)(=O)c1ccc(CCNC(=O)CSCc2ccccc2)cc1 | 42.6 µg/mL (≈ 117 µM)
O=C(Nc1nsc(-c2ccccc2)n1)c1ccc(F)cc1 | 32.2 µg/mL (≈ 108 µM)
Cc1cccc(NS(=O)(=O)c2ccc3oc(=O)ccc3c2)c1C | 44.8 µg/mL (≈ 136 µM)
CC1CCN(C(=O)COc2ncnc3ccccc23)CC1 | 35.7 µg/mL (≈ 125 µM)
CN(C(=O)CSc1nc(-c2cccs2)nc2ccccc12)C1CCS(=O)(=O)C1 (stereo not drawn) | 2.5 µg/mL (≈ 5.77 µM)
Cc1nn(CC(=O)NCc2ccco2)c(C)c1[N+](=O)[O-] | > 41.7 µg/mL
CC1CCCCN1C(=O)COC(=O)c1ccc(N2CCCC2=O)cc1 (stereo not drawn) | > 51.7 µg/mL
Nc1cccc2c1C(=O)N(Cc1cccc(Cl)c1)C2=O | < 0.3 µg/mL
CCOc1cccc(NC(=O)/C(C#N)=C/c2cccnc2)c1 | 31.7 µg/mL (≈ 108 µM)
CN(C)S(=O)(=O)c1cc(NC(=O)COC(=O)c2nc(Cl)ccc2Cl)ccc1Cl | 52.7 µg/mL (≈ 113 µM)

SMILES | solubility kinetic
Cc1ccc(C(=O)COC(=O)c2nc(Cl)ccc2Cl)cc1 | 48.4 µg/mL (≈ 149 µM)
CCCC(=O)c1cc2c(cc1NC(=O)c1ccccc1F)OCCO2 | < 0.7 µg/mL
O=C(O)Cn1c(Cc2ccccc2)nc2ccccc21 | 22.4 µg/mL (≈ 84.1 µM)
CN(C)S(=O)(=O)c1ccc(Cl)c(NC(=O)CNC2(C)CCS(=O)(=O)C2)c1 (stereo not drawn) | > 63.6 µg/mL
O=C(Nc1ccc(O)cc1)c1ccc(NC(=O)c2cccs2)cc1 | 0.8 µg/mL (≈ 2.36 µM)
COc1cc(C#N)c(NC(=O)CN2CCC(C(N)=O)CC2)cc1OC | > 52 µg/mL
Cc1ccc(S(=O)(=O)NCc2csc(C)n2)cc1 | > 42.4 µg/mL
CC(C)C(Nc1ccc(C(F)(F)F)cc1[N+](=O)[O-])C(=O)O (stereo not drawn) | > 45.9 µg/mL
O=C(O)c1ccc(Nc2ccc([N+](=O)[O-])c3nonc23)cc1 | > 45 µg/mL
Cc1cc(=O)[nH]c(SCc2cccc3cccnc23)n1 | 13.4 µg/mL (≈ 47.3 µM)
O=[N+]([O-])c1ccc(Cl)cc1NCC1CCCO1 (stereo not drawn) | 28 µg/mL (≈ 109 µM)
c1ccc(Nc2ncnc3sccc23)cc1 | > 34.1 µg/mL
C=CCn1c(SCC(C)=O)nc2scc(-c3ccc(C)o3)c2c1=O | 1.6 µg/mL (≈ 4.44 µM)
COc1ccc(CNC(=O)COC(=O)/C=C/c2ccc(Cl)cc2)cc1 | < 0.8 µg/mL
CSc1sc(C#N)c2c1/C(=N\O)CCC2 | 1 µg/mL (≈ 4.2 µM)
Cc1ccc(NC(=O)Nc2cccc3ccccc23)cc1 | < 0.3 µg/mL
CC(C)C(O)(C#CCN1CCCCCC1)c1ccccc1.Cl (stereo not drawn) | > 48.3 µg/mL
CN1C[C@@H]2C[C@@H](c3cccn3-c3ccccn3)N3CCC[C@@]23C1=O | > 48.4 µg/mL

Reference: PubChem BioAssay AID1996
